Measurements: patent publication US20030224416A1, “Schizophrenia related gene” (priority 2002, published 2003)

System: Kv3.1 α-subunit mRNA
Experiment: Experiment 1: in situ hybridization of Kv3.1 α-subunit mRNA in brain, chronic PCP rat model of schizophrenia with antipsychotic co-treatment
Type: in vivo

For CN1CCN(C2=Nc3ccc(F)cc3Nc3sc4ccccc4c32)CC1.O=C(O)/C=C\C(=O)O [Y-931, 8-fluoro-12-(4-methylpiperazin-1-yl)-6H-[l]benzothieno[2,3-b][1,5]benzo-diazepine monomaleate], which “Kv3.1 α-subunit mRNA expression” value (M2, PCP + drug 1 mg/kg/day) is on record?
Its value is 13.10 ± 0.57 PSL/mm^2.

What about the “Kv3.1 α-subunit mRNA expression” value (M2, PCP + drug 3 mg/kg/day) of the same compound?
Its value is 14.25 ± 0.81 PSL/mm^2.

What about the “Kv3.1 α-subunit mRNA expression” value (M2, PCP + drug 10 mg/kg/day) of the same compound?
Its value is 13.04 ± 0.53 PSL/mm^2.

What about the “Kv3.1 α-subunit mRNA expression” value (MG, PCP + drug 0.3 mg/kg/day) of the same compound?
The value was 26.82 ± 1.55 PSL/mm^2.

And the “Kv3.1 α-subunit mRNA expression” value (MG, PCP + drug 1 mg/kg/day)?
The value was 26.36 ± 0.95 PSL/mm^2.

What about the “Kv3.1 α-subunit mRNA expression” value (MG, PCP + drug 3 mg/kg/day) of the same compound?
Its value is 26.75 ± 2.02 PSL/mm^2.

What about the “Kv3.1 α-subunit mRNA expression” value (MG, PCP + drug 10 mg/kg/day) of the same compound?
Its value is 27.36 ± 1.86 PSL/mm^2.

What about the “Kv3.1 α-subunit mRNA expression” value (MM, PCP + drug 0.3 mg/kg/day) of the same compound?
Its value is 25.02 ± 2.54 PSL/mm^2.

What about the “Kv3.1 α-subunit mRNA expression” value (MM, PCP + drug 1 mg/kg/day) of the same compound?
Its value is 24.82 ± 0.93 PSL/mm^2.

What about the “Kv3.1 α-subunit mRNA expression” value (MM, PCP + drug 3 mg/kg/day) of the same compound?
Its value is 20.92 ± 0.93 PSL/mm^2.

And the “Kv3.1 α-subunit mRNA expression” value (MM, PCP + drug 10 mg/kg/day)?
Its value is 28.12 ± 1.89 PSL/mm^2.

What about the “Kv3.1 α-subunit mRNA expression” value (Pir, PCP + drug 0.3 mg/kg/day) of the same compound?
Its value is 38.95 ± 2.38 PSL/mm^2.

What about the “Kv3.1 α-subunit mRNA expression” value (Pir, PCP + drug 1 mg/kg/day) of the same compound?
The value was 43.16 ± 2.76 PSL/mm^2.

And the “Kv3.1 α-subunit mRNA expression” value (Pir, PCP + drug 3 mg/kg/day)?
Its value is 38.15 ± 3.31 PSL/mm^2.

And the “Kv3.1 α-subunit mRNA expression” value (Pir, PCP + drug 10 mg/kg/day)?
The value was 41.69 ± 1.90 PSL/mm^2.

What about the “Kv3.1 α-subunit mRNA expression” value (PrL, PCP + drug 0.3 mg/kg/day) of the same compound?
Its value is 12.76 PSL/mm^2.

What about the “Kv3.1 α-subunit mRNA expression” value (PrL, PCP + drug 1 mg/kg/day) of the same compound?
The value was 12.17 PSL/mm^2.

What about the “Kv3.1 α-subunit mRNA expression” value (PrL, PCP + drug 3 mg/kg/day) of the same compound?
Its value is 12.93 PSL/mm^2.

What about the “Kv3.1 α-subunit mRNA expression” value (PrL, PCP + drug 10 mg/kg/day) of the same compound?
The value was 12.55 PSL/mm^2.

And the “effect on PCP-induced decrease in Kv3.1 α-subunit mRNA expression” value (PrL, all doses administered (0.3-10 mg/kg/day))?
Its value is “significantly reversed the PCP-induced decrease back to control levels”.

And the “Kv3.1 α-subunit mRNA expression” value (RSa, PCP + drug 0.3 mg/kg/day)?
Its value is 19.22 ± 1.40 PSL/mm^2.

And the “Kv3.1 α-subunit mRNA expression” value (RSa, PCP + drug 1 mg/kg/day)?
Its value is 18.90 ± 1.03 PSL/mm^2.

What about the “Kv3.1 α-subunit mRNA expression” value (RSa, PCP + drug 3 mg/kg/day) of the same compound?
Its value is 17.36 ± 1.55 PSL/mm^2.

What about the “Kv3.1 α-subunit mRNA expression” value (RSa, PCP + drug 10 mg/kg/day) of the same compound?
The value was 18.04 ± 0.87 PSL/mm^2.

What about the “Kv3.1 α-subunit mRNA expression” value (RSg, PCP + drug 0.3 mg/kg/day) of the same compound?
Its value is 20.89 ± 0.95 PSL/mm^2.

And the “Kv3.1 α-subunit mRNA expression” value (RSg, PCP + drug 1 mg/kg/day)?
The value was 19.99 ± 0.59 PSL/mm^2.

And the “Kv3.1 α-subunit mRNA expression” value (RSg, PCP + drug 3 mg/kg/day)?
Its value is 20.73 ± 1.22 PSL/mm^2.

And the “Kv3.1 α-subunit mRNA expression” value (RSg, PCP + drug 10 mg/kg/day)?
The value was 19.48 ± 0.64 PSL/mm^2.

What about the “Kv3.1 α-subunit mRNA expression” value (SN, PCP + drug 0.3 mg/kg/day) of the same compound?
The value was 11.66 ± 0.91 PSL/mm^2.

And the “Kv3.1 α-subunit mRNA expression” value (SN, PCP + drug 1 mg/kg/day)?
The value was 12.98 ± 1.12 PSL/mm^2.

What about the “Kv3.1 α-subunit mRNA expression” value (SN, PCP + drug 3 mg/kg/day) of the same compound?
The value was 13.04 ± 1.29 PSL/mm^2.

And the “Kv3.1 α-subunit mRNA expression” value (SN, PCP + drug 10 mg/kg/day)?
The value was 15.34 ± 1.58 PSL/mm^2.

And the “Kv3.1 α-subunit mRNA expression” value (VMStr, PCP + drug 0.3 mg/kg/day)?
The value was 6.75 ± 0.50 PSL/mm^2.

What about the “Kv3.1 α-subunit mRNA expression” value (VMStr, PCP + drug 1 mg/kg/day) of the same compound?
The value was 7.18 ± 0.71 PSL/mm^2.

And the “Kv3.1 α-subunit mRNA expression” value (VMStr, PCP + drug 3 mg/kg/day)?
The value was 7.69 ± 0.35 PSL/mm^2.

What about the “Kv3.1 α-subunit mRNA expression” value (VMStr, PCP + drug 10 mg/kg/day) of the same compound?
Its value is 7.23 ± 0.26 PSL/mm^2.

What about the “Kv3.1 α-subunit mRNA expression” value (VO, PCP + drug 0.3 mg/kg/day) of the same compound?
The value was 19.12 ± 0.74 PSL/mm^2.

What about the “Kv3.1 α-subunit mRNA expression” value (VO, PCP + drug 1 mg/kg/day) of the same compound?
Its value is 17.81 ± 1.08 PSL/mm^2.

And the “Kv3.1 α-subunit mRNA expression” value (VO, PCP + drug 3 mg/kg/day)?
Its value is 19.32 ± 0.63 PSL/mm^2.

What about the “Kv3.1 α-subunit mRNA expression” value (VO, PCP + drug 10 mg/kg/day) of the same compound?
Its value is 18.51 ± 1.08 PSL/mm^2.

What about the “effect on PCP-induced decreases in Kv3.1 α-subunit mRNA expression (summary)” value (chronic co-administration with PCP) of the same compound?
Its value is “reversed”.

What about the “effect on PCP-induced decrease in Kv3.1 α-subunit mRNA expression” value (dRt and DLStr) of the same compound?
The value was “neither Y-931 nor olanzapine significantly modulated the PCP-induced effect”.

And the “Kv3.1 α-subunit mRNA expression” value (dRt, PCP + drug 0.3 mg/kg/day)?
The value was 54.94 ± 1.99 PSL/mm^2.

And the “Kv3.1 α-subunit mRNA expression” value (dRt, PCP + drug 1 mg/kg/day)?
The value was 51.68 ± 2.34 PSL/mm^2.

And the “Kv3.1 α-subunit mRNA expression” value (dRt, PCP + drug 3 mg/kg/day)?
The value was 53.38 ± 2.99 PSL/mm^2.

What about the “Kv3.1 α-subunit mRNA expression” value (dRt, PCP + drug 10 mg/kg/day) of the same compound?
The value was 54.81 ± 1.90 PSL/mm^2.

What about the “Kv3.1 α-subunit mRNA expression” value (vRt, PCP + drug 0.3 mg/kg/day) of the same compound?
The value was 46.91 ± 2.73 PSL/mm^2.

And the “Kv3.1 α-subunit mRNA expression” value (vRt, PCP + drug 1 mg/kg/day)?
The value was 47.18 ± 2.10 PSL/mm^2.

And the “Kv3.1 α-subunit mRNA expression” value (vRt, PCP + drug 3 mg/kg/day)?
Its value is 52.57 ± 2.00 PSL/mm^2.

What about the “Kv3.1 α-subunit mRNA expression” value (vRt, PCP + drug 10 mg/kg/day) of the same compound?
The value was 49.70 ± 2.76 PSL/mm^2.
